{"source": "patent EP0438554B1", "about": "“NITROGENOUS AMBRUTICINES, PROCESS FOR OBTAINING THEM AND THEIR USE” (Gesellschaft für Biotechnologische Forschung mbH (GBF), priority 1989, dated 1991)", "origin": "cited, not measured here", "conditions": "in vitro; S.M. Ringel et al., J. of Antibiotics 30, 371 (1977)"}
{"smiles": "CC[C@H]1O[C@@H](/C(C)=C/[C@H](C)/C=C/[C@H]2[C@@H](C)[C@@H]2/C=C/[C@@H]2O[C@H](CC(=O)O)C[C@H](O)[C@H]2O)CC=C1C", "note": "[Ambruticin]", "values": [{"measurement": "antibakterielle Wirkung", "result": "schwach antibakterielle"}]}
